Experiment [1] deals with T1, Lin28B ZKD (Homo sapiens, UniProt Q6ZN17).
T1 construct: His-tagged human Lin28B ZKD (aa110-174); His-tag; made in house; host or cells: Escherichia coli BL21
T1 sequence (Q6ZN17 110-174): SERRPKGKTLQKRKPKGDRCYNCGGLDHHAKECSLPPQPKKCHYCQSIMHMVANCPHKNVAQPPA
Description: Bio-layer interferometry (BLI) with Avi-tagged Lin28B ZKD. The settings on record: for BLI binding to Lin28 ZKD: up to 100 µM. It counts as binding. How it is done: BLI assays were performed as we previously reported to quantify the direct and reversible interactions between small molecules and Lin28B ZKD by using OctetRED (ForteBio, Bohemia, NY, USA). Lin28B was thus expressed with His-tag and a biotinylated AviTag sequence ([…]) at its N-terminus in Escherichia coli BL21 cells. Purified Lin28B ZKD (50 ug/mL) was bound to the super-streptavidin sensors for 1 h at room temperature. Sensors were next blocked with biocytin, washed, and then dipped into wells containing increasing concentrations of the tested inhibitors in assay buffer (20 mM N-2-hydroxyethylpiperazine-N0-2-ethanesulfonic acid (HEPES), 150 mM NaCl, 500 uM tris(2-carboxyethyl) phosphine (TCEP), and 1% dimethylsulfoxide (DMSO)). Association for 200 s and dissociation in assay buffer for 100 s were recorded for each well. Data analysis was done using the OctetRED software (ForteBio, Bohemia, NY, USA).
Figure 3 Lin28 inhibitors block the interaction between Lin28B ZKD and Let-7. (A) EMSA used 10 nM of IR800DyeCWN-labeled let-7 probe (lane 1), 0.5 uM Lin28B ZKD protein with 10 nM of labeled Let-7 probe (lane 2), or Lin28B ZKD, labeled Let-7 probe and 100× non-labelled competitor probe (lane 3). EMSA used Lin28B ZKD, labeled Let-7 probe, and 100–1200 uM of indicated compounds (lanes 4–10). (B) FP assays were performed by using 10 uM of Lin28B ZKD and 1 nM of FAM-labeled Let-7 probe and 1 nM–1000 uM of compounds. (C) Bio-layer interferometry (BLI) assays were performed using 0–25 uM of Ln115 with Avi-tagged Lin28B ZKD protein. (D) Chemical structures of the three lead compounds were shown.
To validate that these molecules indeed directly bind to the ZKD domain of Lin28 in a reversible and dose-dependent manner, we used the biolayer interferometry (BLI) assay. Biotinylated Avi-tagged Lin28 ZKD was immobilized onto streptavidin biosensors. The sensor plates were then dipped in successive wells containing increasing concentrations of Ln7, Ln 15, or Ln115. […]
For orientation: In BLI a coated tip is dipped into the sample, and binding shifts an interference pattern.

Experiment [2] concerns the target T2, Lin28A ZKD (Homo sapiens, UniProt Q9H9Z2).
T2 construct: Lin28A ZKD (aa121-187); His-tag; made in house; host or cells: Escherichia coli BL21
T2 sequence (Q9H9Z2 121-187): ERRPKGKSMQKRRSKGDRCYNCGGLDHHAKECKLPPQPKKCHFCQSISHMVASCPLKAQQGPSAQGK
Description: Fluorescence polarization (FP) assay, Lin28A ZKD with FAM-labeled Let-7 probe. It counts as binding. The settings on record: for IC50: 10 uM Lin28A ZKD, 1 nM FAM-labeled Let-7 probe, 1 nM–200 uM compound; for suppression of FP signals: Lin28A ZKD. The source says: ZINC compounds were purchased from Enamine (Kyiv, Ukraine), Life Chemicals Ltd. (Kyiv, Ukraine), or Princeton Biomolecular Research (Princeton, NJ, USA) with >90% purity. Upon receiving the compounds, the molecular masses were validated by LC/MS/MS. His-tagged human Lin28B ZKD (aa110-174), Lin28B CSD+ZKD (aa7-204), and Lin28A ZKD (aa121-187) were expressed in Escherichia coli BL21 cells and purified by immobilized metal ion affinity chromatography (IMAC) with nickel nitrilotriacetic acid (NiNTA) resin and size exclusion chromatography (s75 10/300 GL) as we have previously reported.
The fluorescein amidites (FAM)-tagged Let-7 probe with the sequence of […] was purchased from Integrated DNA Technologies (IDT). The probe at the concentrations ranging from 1 nM to 50 uM was incubated with Lin28B (ZKD) or Lin28 (CSD+ZKD) to a final volume of 30 uL at room temperature for 20 min. To read the fluorescence, a TECAN 500 machine was used. Fluorescence polarization was calculated using the following equation: P=Fparrallel−Fperpendicular/Fparrallel+Fperpendicular where P is the fluorescence polarization reading, F parallel is the fluorescence intensity acquired from the parallel excitation plane, and F perpendicular is the fluorescence intensity acquired from the perpendicular direction of the excitation plane. The total fluorescence intensity is estimated using the following equation: F=Fparallel+2Fperpendicular
All the raw FP signal data from the TECAN 500 FP results were analyzed using Prism 8.0 (GraphPad, San Diego, CA, USA); normalized curves were plotted and IC50 values were estimated. All FP data were repeated three to five times.
Figure 5 Lin28 inhibitors block the Lin28A isoform. (A) EMSA used 10 nM of IR800DyeCWN-labeled Let-7 probe (lane 1), 0.5 uM Lin28A ZKD protein with 10 nM of labeled Let-7 probe (lane 2), or Lin28A ZKD, labeled Let-7 probe and 100× non-labeled competitor probe (lane 3). EMSA used Lin28A ZKD, labeled Let-7 probe, and 100–1200 uM of indicated compounds (lanes 4–10). (B) FP assays were performed by using 10 uM of Lin28A ZKD, 1 nM of FAM-labeled Let-7 probe, and 1 nM–200 uM of compounds. (C) Lin28A-positive IGROV1 cells were treated with 20 uM of the indicated compound for 48 h. Real-time qPCR measured RNA levels of Let-7d, SOX2, and HMGA2. Three biological replicates were performed and all results are presented as mean +/− SD. p-value ≤ 0.05—(*); ≤0.01—(**); ≤0.001—(***).

Here are results for five molecules from PMC9688808, “Discovery of Novel Lin28 Inhibitors to Suppress Cancer Cell Stemness” (Cancers, 2022).

A word on the IC50: it is the concentration that gives 50% inhibition. With `O=c1[nH]c(Nc2ccccc2O)cs1` [Ln15], in experiment [1], the “BLI binding to Lin28 ZKD” value is “non-specific binding to the sensors”. This molecule also came in with an IC50 in experiment [2] of 9.1 µM. `CC(=O)N(C)c1cccc(-c2ccc3nnc(C)n3n2)c1` [compound 1632, reference compound]: the “suppression of FP signals” value in experiment [2] is on record as “mild inhibitions”.

As for `CCc1cc(=O)[nH]c(Nc2cc(Cl)ccc2O)n1` [Ln7], the “BLI binding to Lin28 ZKD” value in experiment [1] is recorded as “did not show any binding”. In experiment [2], this molecule gave an IC50 of 27.4 µM. As a reminder, the Kd is the free concentration of one partner at which half of the binding sites on the other are occupied at equilibrium, for simple one-to-one binding. For the molecule `O=c1cccc(-c2nc3cc(F)c(O)cc3c(=O)[nH]2)[nH]1` [Ln115], the Kd in experiment [1] (0–25 uM Ln115, Avi-tagged Lin28B ZKD, read-out: estimated KD (BLI)) is 60 ± 4 µM. Further, inhibition in experiment [2] was half-maximal at 12.2 µM (IC50).

As to `CCOc1cccc2c1N[C@@H](c1ccc(C(=O)O)cc1)[C@H]1CC=C[C@@H]21` [Li71, reference compound], the “suppression of FP signals” value in experiment [2] is “mild inhibitions”.
